In test [1] the target is BRG-1 (Homo sapiens, UniProt P51532). Put plainly: ATPase catalytic activity assay (ADP-Glo), BRG-1. As to conditions: for Emax: 1 h, read-out: BRG1 Max % Inhibition, ADP-Glo, 30 nM BRG-1, 400 μM ATP. (In ADP-Glo the light output rises with the ADP produced.)
The target of test [2] is BRM (Homo sapiens, UniProt P51531). Kind of test: ATPase catalytic activity assay (ADP-Glo), BRM. Conditions: 30 nM BRM, 400 μM ATP; for IC50: BRM ATPase: IC50 (uM).
Sequence of BRM (P51531 whole entry): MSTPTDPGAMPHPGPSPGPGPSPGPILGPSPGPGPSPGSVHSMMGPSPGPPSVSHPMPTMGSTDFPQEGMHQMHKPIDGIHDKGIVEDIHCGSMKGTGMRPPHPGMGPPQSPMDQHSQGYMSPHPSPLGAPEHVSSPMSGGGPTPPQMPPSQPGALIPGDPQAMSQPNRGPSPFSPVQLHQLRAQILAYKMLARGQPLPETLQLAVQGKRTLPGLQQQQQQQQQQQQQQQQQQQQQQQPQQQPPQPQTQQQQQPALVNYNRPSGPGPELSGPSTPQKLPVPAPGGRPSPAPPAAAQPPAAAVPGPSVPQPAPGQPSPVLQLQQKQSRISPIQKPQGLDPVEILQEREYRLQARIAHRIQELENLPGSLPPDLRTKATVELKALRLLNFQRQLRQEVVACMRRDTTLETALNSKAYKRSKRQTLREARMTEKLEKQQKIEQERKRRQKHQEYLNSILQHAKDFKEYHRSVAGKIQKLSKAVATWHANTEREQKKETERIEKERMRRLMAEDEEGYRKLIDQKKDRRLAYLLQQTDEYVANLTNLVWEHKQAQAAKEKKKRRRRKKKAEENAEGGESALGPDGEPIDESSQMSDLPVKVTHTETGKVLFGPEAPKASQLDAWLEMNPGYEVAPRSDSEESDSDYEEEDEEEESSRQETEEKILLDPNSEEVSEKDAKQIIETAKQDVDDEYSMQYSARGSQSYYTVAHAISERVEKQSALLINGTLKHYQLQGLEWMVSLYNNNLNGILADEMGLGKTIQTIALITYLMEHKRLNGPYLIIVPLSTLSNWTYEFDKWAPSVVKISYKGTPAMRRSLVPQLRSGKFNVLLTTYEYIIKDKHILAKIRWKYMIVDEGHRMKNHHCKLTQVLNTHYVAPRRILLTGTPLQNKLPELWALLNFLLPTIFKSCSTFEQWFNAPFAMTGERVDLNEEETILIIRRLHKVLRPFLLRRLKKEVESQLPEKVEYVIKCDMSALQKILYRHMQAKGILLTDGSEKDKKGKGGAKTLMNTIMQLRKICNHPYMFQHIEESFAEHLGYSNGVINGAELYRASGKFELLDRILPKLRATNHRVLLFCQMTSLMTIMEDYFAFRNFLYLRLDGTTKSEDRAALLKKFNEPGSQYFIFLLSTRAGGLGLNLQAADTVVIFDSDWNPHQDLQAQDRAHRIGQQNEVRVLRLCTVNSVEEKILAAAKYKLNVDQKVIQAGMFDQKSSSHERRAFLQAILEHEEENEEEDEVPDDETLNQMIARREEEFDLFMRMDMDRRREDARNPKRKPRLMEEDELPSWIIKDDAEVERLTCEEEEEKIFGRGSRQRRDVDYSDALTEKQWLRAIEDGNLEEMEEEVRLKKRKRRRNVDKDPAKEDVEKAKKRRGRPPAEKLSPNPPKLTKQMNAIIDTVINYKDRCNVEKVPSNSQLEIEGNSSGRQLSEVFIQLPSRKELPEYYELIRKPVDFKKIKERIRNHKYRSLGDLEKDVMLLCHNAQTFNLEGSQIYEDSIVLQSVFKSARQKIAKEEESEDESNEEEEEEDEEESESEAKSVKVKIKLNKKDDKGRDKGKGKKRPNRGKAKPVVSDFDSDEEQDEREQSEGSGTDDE

Sequence of BRG-1 (P51532 whole entry): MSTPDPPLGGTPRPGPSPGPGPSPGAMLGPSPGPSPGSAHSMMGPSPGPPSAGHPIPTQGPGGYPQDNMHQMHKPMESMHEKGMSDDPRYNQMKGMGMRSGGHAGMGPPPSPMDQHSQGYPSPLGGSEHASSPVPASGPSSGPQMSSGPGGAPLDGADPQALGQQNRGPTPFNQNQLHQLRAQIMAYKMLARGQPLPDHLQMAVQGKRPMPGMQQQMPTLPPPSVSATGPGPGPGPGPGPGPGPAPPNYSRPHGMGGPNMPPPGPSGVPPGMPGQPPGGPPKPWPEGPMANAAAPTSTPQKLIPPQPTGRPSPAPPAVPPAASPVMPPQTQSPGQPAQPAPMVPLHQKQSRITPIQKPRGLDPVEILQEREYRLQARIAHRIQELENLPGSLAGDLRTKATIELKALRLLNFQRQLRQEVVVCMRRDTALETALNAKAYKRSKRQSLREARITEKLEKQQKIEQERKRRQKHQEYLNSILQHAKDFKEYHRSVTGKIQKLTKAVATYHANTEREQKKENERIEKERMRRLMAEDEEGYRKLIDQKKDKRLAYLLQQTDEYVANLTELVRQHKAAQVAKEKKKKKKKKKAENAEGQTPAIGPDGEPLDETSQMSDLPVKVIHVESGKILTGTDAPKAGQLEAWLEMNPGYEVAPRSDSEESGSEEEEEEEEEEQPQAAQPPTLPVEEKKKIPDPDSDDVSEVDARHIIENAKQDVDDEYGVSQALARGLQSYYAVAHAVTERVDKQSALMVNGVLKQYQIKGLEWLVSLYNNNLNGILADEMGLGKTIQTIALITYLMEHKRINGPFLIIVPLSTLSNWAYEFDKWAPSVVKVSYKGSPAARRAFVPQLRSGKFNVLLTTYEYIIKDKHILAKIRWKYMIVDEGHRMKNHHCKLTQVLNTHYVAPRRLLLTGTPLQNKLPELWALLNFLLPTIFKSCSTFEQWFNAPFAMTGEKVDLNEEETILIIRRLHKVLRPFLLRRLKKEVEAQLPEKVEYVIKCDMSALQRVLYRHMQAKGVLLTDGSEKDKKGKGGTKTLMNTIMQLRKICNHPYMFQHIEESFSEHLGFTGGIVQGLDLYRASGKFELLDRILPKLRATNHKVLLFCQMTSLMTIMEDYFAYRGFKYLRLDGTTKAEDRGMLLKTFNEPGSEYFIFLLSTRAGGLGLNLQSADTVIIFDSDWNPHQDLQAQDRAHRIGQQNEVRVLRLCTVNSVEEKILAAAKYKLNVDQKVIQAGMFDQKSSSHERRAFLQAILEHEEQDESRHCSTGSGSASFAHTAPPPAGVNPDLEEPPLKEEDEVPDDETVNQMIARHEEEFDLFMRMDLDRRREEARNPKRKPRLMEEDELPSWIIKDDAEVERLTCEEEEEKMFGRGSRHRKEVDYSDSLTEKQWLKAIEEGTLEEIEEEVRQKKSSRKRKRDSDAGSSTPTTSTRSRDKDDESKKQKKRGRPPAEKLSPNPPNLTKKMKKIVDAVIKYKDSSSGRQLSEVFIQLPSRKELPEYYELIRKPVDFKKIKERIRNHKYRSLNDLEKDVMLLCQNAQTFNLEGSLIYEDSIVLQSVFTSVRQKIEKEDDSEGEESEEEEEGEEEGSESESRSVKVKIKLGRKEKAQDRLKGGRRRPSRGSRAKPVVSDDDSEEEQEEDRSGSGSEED

In the case of `COc1c(F)cc(F)cc1-c1ccc2cnc(CNC(=O)c3ccc4c(c3)[C@](C)(C#N)COC4)cc2n1` [Compound 515], in test [1], the IC50 (commonly the point on the concentration scale where inhibition reaches its midpoint) lay within 500 to 1000 nM and the Emax came to 68%. Besides, in test [2], the “BRM Max % Inhibition” value worked out at 90% and the IC50 is 0.1 to 0.5 µM.
Consider `CNC(=O)c1cccc(-c2ccc3cnc(CNC(=O)c4ccc5c(c4)[C@](C)(C#N)COC5)cc3n2)n1` [Compound 466], for which, in test [1], the IC50 fell in the range of 500 to 1000 nM and the Emax was determined as 79%. In addition, in test [2], the “BRM Max % Inhibition” value stood at 99% and the concentration for half-maximal inhibition (IC50) was less than 0.1 µM.
For the molecule `C[C@@]1(C#N)COCc2ccc(C(=O)NCc3cc4nc(-c5ccnc(N6CCC6)n5)ccc4cn3)cc21` [Compound 506], in test [1], the IC50 fell in the range of 100 to 500 nM and the Emax turned out to be 96%. Further, in test [2], the “BRM Max % Inhibition” value was determined as 97% and the IC50 is less than 0.1 µM.
The matching figures for `C[C@@]1(C#N)COCc2ccc(C(=O)NCc3cc4nc(-c5ccnc([C@H]6CC6(F)F)n5)ccc4cn3)cc21` [Compound 217]: 500 to 1000 nM, 79%, 98% and less than 0.1 µM.
In the case of `C[C@@]1(C#N)COCc2ccc(C(=O)NCc3cc4nc(-c5cc6ccccn6n5)ccc4cn3)cc21` [Compound 164], in test [1], the IC50 was in the range of 500 to 1000 nM and the Emax is 68%. Also, in test [2], the “BRM Max % Inhibition” value is reported as 92% and the IC50 was 0.1 to 0.5 µM.
In the same order, the values of `C[C@@]1(C#N)COCc2ncc(C(=O)NCc3cc4nc(-c5cccc(C(F)F)c5)ccc4cn3)cc21` [Compound 500] are 500 to 1000 nM, 83%, 95% and less than 0.1 µM.
On to `C[C@@]1(C#N)COCc2ccc(C(=O)NCc3cc4nc(C5CCOCC5)ccc4cn3)cc21` [Compound 107], for which, in test [1], the IC50 is greater than 1000 nM and the Emax was determined as 16%. For the same molecule, in test [2], the “BRM Max % Inhibition” value was found to be 71% and the half-inhibitory concentration (IC50) was greater than 1 µM.
In the same order, the values of `C[C@@]1(F)COCc2ccc(C(=O)NCc3cc4cc(-c5cccc(N6CCC6)n5)ccc4cn3)cc21` [Compound 368] are 100 to 500 nM, 96%, 103% and less than 0.1 µM.
With `C[C@@]1(C#N)CCNc2ccc(C(=O)NCc3cc4nc(-c5ccccc5)sc4cn3)cc21` [Compound 120], in test [1], the IC50 is greater than 1000 nM and the Emax amounted to 0%. Besides, in test [2], the “BRM Max % Inhibition” value is 8% and the IC50 was greater than 1 µM.
Regarding `COC(=O)c1cccc(-c2ccc3cnc(CNC(=O)c4ccc5c(c4)[C@](C)(C#N)COC5)cc3n2)c1` [Compound 93], in test [1], the IC50 fell in the range of 100 to 500 nM and the Emax turned out to be 93%. In addition, in test [2], the “BRM Max % Inhibition” value is listed as 99% and the concentration for half-maximal inhibition (IC50) was less than 0.1 µM.
For the molecule `CCOC(=O)C12CCC(CC1)N(c1ccc3cnc(CNC(=O)c4ccc5c(c4)[C@](C)(C#N)COC5)cc3n1)C2` [Compound 502], in test [1], the 50% inhibitory concentration (IC50) is 500 to 1000 nM and the Emax is 70%. For the same molecule, in test [2], the “BRM Max % Inhibition” value is 89% and the half-inhibitory concentration (IC50) was in the range of 0.1 to 0.5 µM.
The matching figures for `COC(=O)N1CCC2CC2(c2ccc3cnc(CNC(=O)c4ccc5c(c4)[C@](C)(C#N)COC5)cc3n2)C1` (some centres unmarked) [Compound 523]: 500 to 1000 nM, 58%, 90% and 0.1 to 0.5 µM.
Take `C[C@@]1(F)COCc2ncc(C(=O)NCc3cc4nc(-c5ccnc(N6CCC6)n5)sc4cn3)cc21` [Compound 244]: in test [1], the concentration for half-maximal inhibition (IC50) is greater than 1000 nM and the Emax worked out at 25%. For the same molecule, in test [2], the “BRM Max % Inhibition” value came to 88% and the IC50 is 0.1 to 0.5 µM.
In the case of `CN1CCN(c2nccc(-c3ccc4cnc(CNC(=O)c5ccc6c(c5)[C@](C)(F)COC6)cc4n3)n2)CC1=O` [Compound 267], in test [1], the concentration for half-maximal inhibition (IC50) is 100 to 500 nM and the Emax was determined as 88%. Besides, in test [2], the “BRM Max % Inhibition” value was found to be 103% and the IC50 is less than 0.1 µM.
In the same order, the values of `C[C@@]1(C#N)COCc2ccc(C(=O)NCc3cc4nc(-c5ccnc(N6CCOCC6)n5)ccc4cn3)cc21` [Compound 416] are 100 to 500 nM, 95%, 99% and less than 0.1 µM.
The matching figures for `COc1ccccc1-c1ccc2cnc(CNC(=O)c3ccc4c(c3)[C@](C)(C#N)COC4)cc2n1` [Compound 111]: 100 to 500 nM, 93%, 101% and less than 0.1 µM.
As for `C[C@@]1(C#N)COc2ccc(C(=O)NCc3cc4nc(-c5ccccc5)sc4cn3)cc21` [Compound 117], in test [1], the IC50 is greater than 1000 nM and the Emax is 27%. For the same molecule, in test [2], the “BRM Max % Inhibition” value came to 74% and the IC50 is greater than 1 µM.
As to `C[C@@]1(C#N)COCc2ccc(C(=O)NCc3cc4nc(-c5ccnc(N6CC7CC7C6)n5)ccc4cn3)cc21` (some centres unmarked) [Compound 321], in test [1], the concentration for half-maximal inhibition (IC50) is 100 to 500 nM and the Emax was 95%. In test [2], the “BRM Max % Inhibition” value was 105% and the half-inhibitory concentration (IC50) is less than 0.1 µM.
In the case of `CO[C@@H]1CCN(c2cncc(-c3ccc4cnc(CNC(=O)c5ccc6c(c5)[C@](C)(C#N)COC6)cc4c3)n2)C1` [Compound 366], in test [1], the IC50 is less than 100 nM and the Emax was 99%. Also, in test [2], the “BRM Max % Inhibition” value worked out at 99% and the IC50 was less than 0.1 µM.
For `C[C@@]1(C#N)COCc2ncc(C(=O)NCc3cc4nc(-c5cccc(C6CC6)n5)ccc4cn3)cc21` [Compound 208], in test [1], the 50% inhibitory concentration (IC50) fell in the range of 100 to 500 nM and the Emax was determined as 92%. Also, in test [2], the “BRM Max % Inhibition” value is 98% and the IC50 is less than 0.1 µM.
Consider `C[C@@]1(C#N)COCc2ccc(C(=O)NCc3cc(N4CCC(O)(c5ccccc5)C4)ccn3)cc21` (some centres unmarked) [Compound 54], for which, in test [1], the IC50 is greater than 1000 nM and the Emax is 42%. In test [2], the “BRM Max % Inhibition” value came out at 81% and the IC50 is 0.1 to 0.5 µM.
Turning to `C[C@@]1(C#N)COCc2ccc(C(=O)NCc3cc4cc(-c5cncc(N6CCC6)n5)ccc4nn3)cc21` [Compound 356], in test [1], the IC50 was in the range of 100 to 500 nM and the Emax was found to be 95%. Besides, in test [2], the “BRM Max % Inhibition” value is 97% and the half-inhibitory concentration (IC50) is less than 0.1 µM.
The matching figures for `COc1cc(F)cc2c1CCN(c1ccnc(CNC(=O)c3ccc4c(c3)[C@](C)(C#N)COC4)c1)C2` [Compound 51]: 100 to 500 nM, 94%, 99% and less than 0.1 µM.
In the case of `C[C@@]1(C#N)COCc2ccc(C(=O)NCc3cc4nc(-c5cncc(C6CC6)n5)ccc4cn3)cc21` [Compound 406], in test [1], the IC50 lay within 100 to 500 nM and the Emax was 93%. Besides, in test [2], the “BRM Max % Inhibition” value was found to be 100% and the IC50 was less than 0.1 µM.
`C[C@@]1(C#N)COCc2ccc(C(=O)NCc3cc4nc(N5CCN(C6CCC6)C5=O)ccc4cn3)cc21` [Compound 313]: in test [1], the IC50 was in the range of 500 to 1000 nM and the Emax was determined as 72%. Further, in test [2], the “BRM Max % Inhibition” value is on record as 92% and the IC50 is 0.1 to 0.5 µM.
In the same order, the values of `C[C@@]1(C#N)COCc2ccc(C(=O)NCc3cc4nc(-c5cc(F)c(=O)n(C(F)F)c5)ccc4cn3)cc21` [Compound 449] are greater than 1000 nM, 50%, 92% and 0.1 to 0.5 µM.
Turning to `C[C@@]1(C#N)COCc2ccc(C(=O)NCc3cc(SCc4ccccc4)ccn3)cc21` [Compound 52], in test [1], the IC50 was greater than 1000 nM and the Emax is 34%. Besides, in test [2], the “BRM Max % Inhibition” value stood at 86% and the IC50 lay within 0.1 to 0.5 µM.
Take `COc1nn(C2COC2)cc1-c1ccc2cnc(CNC(=O)c3ccc4c(c3)[C@](C)(C#N)COC4)cc2n1` [Compound 236]: in test [1], the IC50 fell in the range of 100 to 500 nM and the Emax came out at 90%. For the same molecule, in test [2], the “BRM Max % Inhibition” value is reported as 100% and the IC50 is less than 0.1 µM.
The matching figures for `C[C@@]1(C#N)COCc2ccc(C(=O)NCc3cc4nc(-c5cccc(N6CCOCC6)n5)ccc4cn3)cc21` [Compound 373]: less than 100 nM, 100%, 103% and less than 0.1 µM.
In the same order, the values of `COc1nn(C)cc1-c1ccc2nnc(CNC(=O)c3ccc4c(c3)[C@](C)(F)COC4)cc2n1` [Compound 275] are 500 to 1000 nM, 77%, 96% and less than 0.1 µM.
The matching figures for `Cc1ccn(-c2ccc3cnc(CNC(=O)c4ccc5c(c4)[C@](C)(C#N)COC5)cc3n2)n1` [Compound 503]: greater than 1000 nM, 72%, 94% and 0.1 to 0.5 µM.
As to `C[C@@]1(C#N)COCc2ccc(C(=O)NCc3cc(OCc4cccc(N5CCC5)c4)ccn3)cc21` [Compound 40], in test [1], the concentration for half-maximal inhibition (IC50) was greater than 1000 nM and the Emax came out at 67%. In test [2], the “BRM Max % Inhibition” value was found to be 96% and the IC50 was in the range of 0.1 to 0.5 µM.
In the case of `C[C@@]1(F)COCc2ccc(C(=O)NCc3cc4nc(-c5ccnc(N6CCC6)n5)cnc4cn3)cc21` [Compound 190], in test [1], the IC50 lay within 100 to 500 nM and the Emax stood at 89%. Also, in test [2], the “BRM Max % Inhibition” value amounted to 98% and the half-inhibitory concentration (IC50) was less than 0.1 µM.
Turning to `C[C@@]1(C#N)COCc2ccc(C(=O)NCc3cc(N4CCN(c5ccccc5)CC4)ccn3)cc21` [Compound 42], in test [1], the concentration for half-maximal inhibition (IC50) lay in the range of 500 to 1000 nM and the Emax was 84%. In test [2], the “BRM Max % Inhibition” value is listed as 97% and the IC50 lay within 0.1 to 0.5 µM.
The matching figures for `C[C@@]1(C#N)COCc2ccc(C(=O)NCc3cc4cc(-c5cccc(N6CCC6)n5)ccc4cn3)cc21` [Compound 369]: less than 100 nM, 95%, 104% and less than 0.1 µM.

The values are drawn from patent publication US12441726B2, “Compounds and uses thereof” (Foghorn Therapeutics Inc., priority 2020, dated 2025).
